The text below walks through data of patent publication US20040097587A1, “Compositions and methods of treatment of ulcerating diseases, burns, and related conditions” (priority 2003, published 2004).

The experiment has as its system venous ulcer. As to the kind of experiment: Case of a person with venous ulcer and related conditions treated with oral isotretinoin. Type of experiment: in vivo, human. The conditions noted are these: approximately 80 milligrams per day for two months. The text has this:
Preferred unit dosage formulations are those containing a daily dose or unit, daily sub-dose, or an appropriate fraction thereof, of the administered ingredient. […] Acad. of Dermatol, 45, 462-465, which is herein incorporated by reference.

With `CC1=C(/C=C/C(C)=C/C=C/C(C)=C\C(=O)O)C(C)(C)CCC1` [isotretinoin, 13-cis-retinoic acid], the “overall clinical outcome of venous ulcer and related conditions” value (person having venous ulcer and related conditions for five months) is listed as “significant improvement”. Where the note is “person”, the lesions result is recorded as “improved”, the venous ulcer healing result is listed as “healed” and the vessel prominence result was “significantly decreased”.
